Experimental data reported in PMC12606464, “Investigating NFE2L1 activators for targeted protein aggregate clearance: a follow-up study” (RSC Medicinal Chemistry, 2025).

System: proteasome subunit gene expression (PSMC4, PSMB7, PSMD12)
Assay: RT-qPCR of proteasome genes in NFE2L1/NFE2L2-knockdown HEK293 cells
Type: cell-based, human
Details: for NFE2L1 mRNA, mean diff between siRNA treatments, log2 / NFE2L2 mRNA, mean diff between siRNA treatments, log2 / PSMB7 mRNA, mean diff between siRNA treatments, log2 / PSMD12 mRNA, mean diff between siRNA treatments, log2: RUN89-treated
Experimental: Fig. 1 (A) Targeted library screening of RUN compounds using the 3×PSMA4-ARE-LUC dual reporter assay in HEK293 cells. Cells were exposed to RUN compounds (5 μM) for 16 hours, and luciferase activity was measured. Data are presented as the mean ± SD from three independent experiments (n = 3). Results are shown as a fold change in luminescence relative to DMSO-treated cells. Selected hit compounds are highlighted in distinct colours. (B) RUN-89 specifically activates the NFE2L1 pathway. The DDI2 knockout (KO) and parental (WT) HCT116 cells were transfected with the 3×PSMA4-ARE-LUC reporter and treated with 0.5 μM bortezomib (BTZ) and 5 μM RUN-89 for 16 hours. Data are presented as the Geomean ± GeoSD of three independent experiments (n = 3). Statistical analysis was performed on log2-transformed values using two-way repeated-measures ANOVA followed by Šídak's multiple comparison test. (C) RUN-89 selectively triggers downstream signaling events associated with NFE2L1 gene expression. HEK293 cells were transfected with lipid nanoparticles (LNPs) carrying siRNAs targeting NFE2L1 or NFE2L2. LNPs formulated with non-targeting siRNA served as a negative control. Following 24 hours of incubation, cells were treated with 7.5 μM RUN-89 or DMSO (vehicle) for an additional 16 hours. Expression of the proteasomal subunit gene PSMC4 was then quantified by RT-qPCR. Data are shown as the Geomean ± GeoSD from three independent biological replicates (n = 3). Log2-transformed data were analyzed using two-way repeated-measures ANOVA with the Geisser–Greenhouse correction, followed by Tukey's multiple comparison test with individual variances computed for each comparison. Additional results for NFE2L1, NFE2L2, PSMB7, and PSMD12 are presented in SI Fig. S10.
To further confirm that RUN-89 acts through NFE2L1-dependent signalling, we investigated the effect of selective knockdown of NFE2L1 and NFE2L2 on the induction of proteasomal genes. HEK293 cells (from ATCC CCL-247 (RRID:CVCL_0291)) were transfected with lipid nanoparticles (LNPs) carrying siRNAs targeting either NFE2L1 or NFE2L2, while non-targeting siRNA was used as a control. After treatment with RUN-89, transcript levels of several proteasome subunit genes were analyzed by RT-qPCR.
Figure S10: Effects of RUN-89 on NFE2L1- and NFE2L2-associated target genes following […]
HEK293 cells were transfected with lipid nanoparticles (LNPs) containing siRNAs against NFE2L1, NFE2L2, or a non-targeting control siRNA. After 24 hours, cells were treated with 7.5 μM RUN-89 or DMSO (vehicle) for an additional 16 h, and transcript levels of NFE2L1, NFE2L2, PSMB4, PSMB7, and PSMD12 were quantified by RT -qPCR. Data are presented as mean ± SD from three independent biological replicates (n = 3). Log₂ -transformed data were analyzed by two -way repeated-measures ANOVA with Geisser –Greenhouse correction, followed by Tukey’s multiple compa rison test with individual variances computed for each comparison.
2.16 Analysis of proteasome genes expression in NFE2L1/NFE2L2-
The corresponding HEK293 cells were seeded into 24-well culture plates (120,000 cells/well) and allowed to adhere overnight under standard culture conditions. On the following day, cells were transfected with siRNAs targeting NFE2L1, NFE2L2, or a non-targeting negative control siRNA (Table S2). Transfections were performed using a lipid nanoparticle (LNP) delivery system assembled as previously described,(7) with a final siRNA concentration of ~0.2 nmol per well. After 24 h of incubation, cells were treated with 7.5 µM […] or DMSO (vehicle control) for 16 h. Total RNA was then extracted, converted into cDNA, and analyzed by RT-qPCR using primers targeting proteasome genes (listed in Section 2.5, Quantitative RT-PCR, Table S1). Expression levels were normalized to RPLP0 mRNA. The […]

[1] = NFE2L1 siRNA vs. NFE2L1 + L2 siRNA
[2] = NFE2L2 siRNA vs. NFE2L1 + L2 siRNA
[3] = Non transfected vs. NFE2L1 + L2 siRNA
[4] = Non transfected vs. NFE2L1 siRNA
[5] = Non transfected vs. NFE2L2 siRNA
[6] = Non transfected vs. Scramble control siRNA
[7] = Scramble control siRNA vs. NFE2L1 + L2 siRNA
[8] = Scramble control siRNA vs. NFE2L1 siRNA
[9] = Scramble control siRNA vs. NFE2L2 siRNA

COc1ccc(/C=C2\CC(NC(=O)C3CCCC3)C/C(=C\c3ccc(OC)c(OC)c3)C2=O)cc1OC (centres unmarked) [RUN-89]
PSMC4 expression, mean log2, NFE2L1 + L2 siRNA (7.5 μM, 16 h, HEK293): 0.5367 | PSMC4 expression, mean log2, NFE2L1 siRNA (7.5 μM, 16 h, HEK293): 0.5329 | PSMC4 expression, mean log2, NFE2L2 siRNA (7.5 μM, 16 h, HEK293): 1.12 | PSMC4 expression, mean log2, scramble control siRNA (7.5 μM, 16 h, HEK293): 1.335 | PSMC4 expression, row mean of log2 values over all siRNA treatments (7.5 μM, 16 h, HEK293): 0.9981 | PSMC4 expression, mean log2, non transfected (7.5 μM, 16 h, HEK293, no siRNA): 1.466 | Induction of PSMC4 expression upon silencing of NFE2L1, but not NFE2L2 (HEK293, siRNA LNPs): markedly reduced | Mean diff, of log2-transformed values, DMSO vs. RUN89 (NFE2L1 + L2 siRNA): 0.1671 | NFE2L1 mRNA, mean diff DMSO vs. RUN89, log2 (NFE2L1 + L2 siRNA): 0.4839 | NFE2L1 mRNA, mean of log2-transformed values (NFE2L1 + L2 siRNA): -1.849 | NFE2L2 mRNA, mean diff DMSO vs. RUN89, log2 (NFE2L1 + L2 siRNA): 0.1671 | PSMB7 mRNA, mean diff DMSO vs. RUN89, log2 (NFE2L1 + L2 siRNA): -0.04295 | PSMB7 mRNA, mean of log2-transformed values (NFE2L1 + L2 siRNA): -0.005215 | PSMD12 mRNA, mean diff DMSO vs. RUN89, log2 (NFE2L1 + L2 siRNA): -1.247 | PSMD12 mRNA, mean of log2-transformed values (NFE2L1 + L2 siRNA): 1.4 | Mean diff, of log2-transformed values, DMSO vs. RUN89 (NFE2L1 siRNA): 0.3261 | NFE2L1 mRNA, mean diff DMSO vs. RUN89, log2 (NFE2L1 siRNA): 0.5812 | NFE2L1 mRNA, mean of log2-transformed values (NFE2L1 siRNA): -2.192 | NFE2L2 mRNA, mean diff DMSO vs. RUN89, log2 (NFE2L1 siRNA): 0.3261 | PSMB7 mRNA, mean diff DMSO vs. RUN89, log2 (NFE2L1 siRNA): 0.02314 | PSMB7 mRNA, mean of log2-transformed values (NFE2L1 siRNA): -0.07162 | PSMD12 mRNA, mean diff DMSO vs. RUN89, log2 (NFE2L1 siRNA): -1.239 | PSMD12 mRNA, mean of log2-transformed values (NFE2L1 siRNA): 1.413 | Mean diff, of log2-transformed values, DMSO vs. RUN89 (NFE2L2 siRNA): 0.07457 | NFE2L1 mRNA, mean diff DMSO vs. RUN89, log2 (NFE2L2 siRNA): -0.06055 | NFE2L1 mRNA, mean of log2-transformed values (NFE2L2 siRNA): -0.3257 | NFE2L2 mRNA, mean diff DMSO vs. RUN89, log2 (NFE2L2 siRNA): 0.07457 | PSMB7 mRNA, mean diff DMSO vs. RUN89, log2 (NFE2L2 siRNA): -0.4898 | PSMB7 mRNA, mean of log2-transformed values (NFE2L2 siRNA): 0.4898 | PSMD12 mRNA, mean diff DMSO vs. RUN89, log2 (NFE2L2 siRNA): -1.678 | PSMD12 mRNA, mean of log2-transformed values (NFE2L2 siRNA): 1.979 | Mean diff, of log2-transformed values, DMSO vs. RUN89 (Non transfected): -0.3265 | NFE2L2 mRNA, mean diff DMSO vs. RUN89, log2 (Non transfected): -0.3265 | PSMB7 mRNA, mean diff DMSO vs. RUN89, log2 (Non transfected): -0.7476 | PSMB7 mRNA, mean of log2-transformed values (Non transfected): 0.7599 | PSMD12 mRNA, mean diff DMSO vs. RUN89, log2 (Non transfected): -1.909 | PSMD12 mRNA, mean of log2-transformed values (Non transfected): 2.076 | NFE2L1 mRNA, mean diff between siRNA treatments, log2 [1]: 0.3437 | NFE2L2 mRNA, mean diff between siRNA treatments, log2 [1]: 2.749 | PSMB7 mRNA, mean diff between siRNA treatments, log2 [1]: -0.0664 | PSMD12 mRNA, mean diff between siRNA treatments, log2 [1]: 0.01218 | NFE2L1 mRNA, mean diff between siRNA treatments, log2 (NFE2L1 siRNA vs. NFE2L2 siRNA): 1.867 | NFE2L2 mRNA, mean diff between siRNA treatments, log2 (NFE2L1 siRNA vs. NFE2L2 siRNA): 2.85 | PSMB7 mRNA, mean diff between siRNA treatments, log2 (NFE2L1 siRNA vs. NFE2L2 siRNA): -0.5614 | PSMD12 mRNA, mean diff between siRNA treatments, log2 (NFE2L1 siRNA vs. NFE2L2 siRNA): -0.5664 | NFE2L1 mRNA, mean diff between siRNA treatments, log2 [2]: -1.523 | NFE2L2 mRNA, mean diff between siRNA treatments, log2 [2]: -0.1013 | PSMB7 mRNA, mean diff between siRNA treatments, log2 [2]: 0.495 | PSMD12 mRNA, mean diff between siRNA treatments, log2 [2]: 0.5786 | NFE2L1 mRNA, mean diff between siRNA treatments, log2 [3]: -2.639 | NFE2L2 mRNA, mean diff between siRNA treatments, log2 [3]: 3.437 | PSMB7 mRNA, mean diff between siRNA treatments, log2 [3]: 0.7651 | PSMD12 mRNA, mean diff between siRNA treatments, log2 [3]: 0.6755 | NFE2L1 mRNA, mean diff between siRNA treatments, log2 [4]: -2.982 | NFE2L2 mRNA, mean diff between siRNA treatments, log2 [4]: 0.6883 | PSMB7 mRNA, mean diff between siRNA treatments, log2 [4]: 0.8315 | PSMD12 mRNA, mean diff between siRNA treatments, log2 [4]: 0.6633 | NFE2L1 mRNA, mean diff between siRNA treatments, log2 [5]: -1.115 | NFE2L2 mRNA, mean diff between siRNA treatments, log2 [5]: 3.539 | PSMB7 mRNA, mean diff between siRNA treatments, log2 [5]: 0.27 | PSMD12 mRNA, mean diff between siRNA treatments, log2 [5]: 0.09696 | NFE2L2 mRNA, mean diff between siRNA treatments, log2 [6]: -0.01225 | PSMB7 mRNA, mean diff between siRNA treatments, log2 [6]: 0.1431 | PSMD12 mRNA, mean diff between siRNA treatments, log2 [6]: -0.01734 | NFE2L1 mRNA, mean diff between siRNA treatments, log2 [7]: -2.465 | NFE2L2 mRNA, mean diff between siRNA treatments, log2 [7]: 3.45 | PSMB7 mRNA, mean diff between siRNA treatments, log2 [7]: 0.622 | PSMD12 mRNA, mean diff between siRNA treatments, log2 [7]: 0.6929 | NFE2L1 mRNA, mean diff between siRNA treatments, log2 [8]: -2.808 | NFE2L2 mRNA, mean diff between siRNA treatments, log2 [8]: 0.7005 | PSMB7 mRNA, mean diff between siRNA treatments, log2 [8]: 0.6884 | PSMD12 mRNA, mean diff between siRNA treatments, log2 [8]: 0.6807 | NFE2L1 mRNA, mean diff between siRNA treatments, log2 [9]: -0.9417 | NFE2L2 mRNA, mean diff between siRNA treatments, log2 [9]: 3.551 | PSMB7 mRNA, mean diff between siRNA treatments, log2 [9]: 0.127 | PSMD12 mRNA, mean diff between siRNA treatments, log2 [9]: 0.1143 | Mean diff, of log2-transformed values, DMSO vs. RUN89 (Scramble control siRNA): -0.3474 | NFE2L1 mRNA, mean diff DMSO vs. RUN89, log2 (Scramble control siRNA): 0.6041 | NFE2L1 mRNA, mean of log2-transformed values (Scramble control siRNA): 0.616 | NFE2L2 mRNA, mean diff DMSO vs. RUN89, log2 (Scramble control siRNA): -0.3474 | PSMB7 mRNA, mean diff DMSO vs. RUN89, log2 (Scramble control siRNA): -0.6138 | PSMB7 mRNA, mean of log2-transformed values (Scramble control siRNA): 0.6168 | PSMD12 mRNA, mean diff DMSO vs. RUN89, log2 (Scramble control siRNA): -2.092 | PSMD12 mRNA, mean of log2-transformed values (Scramble control siRNA): 2.093 | NFE2L1 mRNA, mean of log2-transformed values (row mean) (mean over all siRNA treatments): -0.5922 | NFE2L2 mRNA, mean of log2-transformed values (row mean) (mean over all siRNA treatments): -1.194 | PSMB7 mRNA, mean of log2-transformed values (row mean) (mean over all siRNA treatments): 0.3579 | PSMD12 mRNA, mean of log2-transformed values (row mean) (mean over all siRNA treatments): 1.792 | NFE2L1 mRNA, difference between means (DMSO - RUN89), log2 (over all siRNA treatments): -0.4084 | NFE2L2 mRNA, difference between means (DMSO - RUN89), log2 (over all siRNA treatments): -0.02122 | PSMB7 mRNA, difference between means (DMSO - RUN89), log2 (over all siRNA treatments): -0.3742 | PSMD12 mRNA, difference between means (DMSO - RUN89), log2 (over all siRNA treatments): -1.633
